# Laboratory results from US20170240556A1, “BIFLUORODIOXALANE-AMINO-BENZIMIDAZOLE KINASE INHIBITORS FOR THE TREATMENT OF CANCER, AUTOIMMUNEINFLAMMATION AND CNS DISORDERS” (4SC DISCOVERY GMBH, priority 2012, published 2017).
# Molecular target: Casein kinase 1 delta (CSKN1D) (Homo sapiens, UniProt P48730)
# Experiment: Casein kinase assay, CK1 delta
# Format: biochemical
# Details: recombinant CSKN1D 5 nM, ATP 10 μM
# Experimental: The recombinant protein Casein kinase 1 delta (CSKN1D) was added to the substrate solution in a concentration of 5 nM and gently mixed. Dilution series in of compounds of the present invention in DMSO were added to the reaction mixture, followed after 20 min by addition of a mixture of ATP and ^33P-ATP (specific activity 0.01 μCi/μl final) to a final concentration of 10 μM. Reactions were carried out at 25° C. for 120 min, followed by spotting the reactions onto P81 ion exchange filter paper. Unbound phosphate was removed by washing of the filters in 0.75% phosphoric acid. […] IC50 values and curve fits were obtained using the program Prism® (Graph Pad Software).
# Chain of Casein kinase 1 delta (CSKN1D) (P48730 whole entry): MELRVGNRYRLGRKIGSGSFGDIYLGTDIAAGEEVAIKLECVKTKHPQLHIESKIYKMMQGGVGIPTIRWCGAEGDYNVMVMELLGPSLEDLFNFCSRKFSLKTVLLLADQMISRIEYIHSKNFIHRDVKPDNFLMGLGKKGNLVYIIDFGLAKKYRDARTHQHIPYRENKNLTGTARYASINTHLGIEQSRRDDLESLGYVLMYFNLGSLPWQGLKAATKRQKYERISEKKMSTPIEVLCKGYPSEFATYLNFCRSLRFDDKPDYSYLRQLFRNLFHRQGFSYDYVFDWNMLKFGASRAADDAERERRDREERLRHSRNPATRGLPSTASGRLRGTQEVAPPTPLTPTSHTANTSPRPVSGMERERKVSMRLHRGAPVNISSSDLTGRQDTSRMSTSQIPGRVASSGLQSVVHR
row,Compound,IC50 [nM]
1,"O=C(Nc1nc2cc3c(cc2[nH]1)OC(F)(F)O3)c1cccc(OC(F)(F)F)c1 [Compound 120, N-(2,2-difluoro-5H-[1,3]dioxolo[4′,5′:4,5]benzo[1,2-d]imidazol-6-yl)-3-(trifluoromethoxy)benzamide]",200 to 1000
2,"Nc1ccc(C(=O)Nc2nc3cc4c(cc3[nH]2)OC(F)(F)O4)cc1F [Compound 127, 4-amino-N-(2,2-difluoro-5H-[1,3]dioxolo[4′,5′:4,5]benzo[1,2-d]imidazol-6-yl)-3-fluorobenzamide]",200 to 1000
3,"NS(=O)(=O)c1cccc(C(=O)Nc2nc3cc4c(cc3[nH]2)OC(F)(F)O4)c1 [Compound 100, N-(2,2-difluoro-5H-[1,3]dioxolo[4′,5′:4,5]benzo[1,2-d]imidazol-6-yl)-3-sulfamoylbenzamide]",< 200
4,"Cc1onc(-c2ccccc2)c1C(=O)Nc1nc2cc3c(cc2[nH]1)OC(F)(F)O3 [Compound 50, N-(2,2-difluoro-5H-[1,3]dioxolo[4′,5′:4,5]benzo[1,2-d]imidazol-6-yl)-5-methyl-3-phenylisoxazole-4-carboxamide]",> 1000
5,"O=C(Nc1nc2cc3c(cc2[nH]1)OC(F)(F)O3)c1csc(-c2ccsc2)n1 [Compound 81, N-(2,2-difluoro-5H-[1,3]dioxolo[4′,5′:4,5]benzo[1,2-d]imidazol-6-yl)-2-(thiophen-3-yl)thiazole-4-carboxamide]",< 200
6,"Nc1ccc(C(=O)Nc2nc3cc4c(cc3[nH]2)OC(F)(F)O4)cc1 [Compound 60, 4-amino-N-(2,2-difluoro-5H-[1,3]dioxolo[4′,5′:4,5]benzo[1,2-d]imidazol-6-yl)benzamide]",< 200
7,"O=C(Nc1nc2cc3c(cc2[nH]1)OC(F)(F)O3)c1cccnc1 [Compound 78, N-(2,2-difluoro-5H-[1,3]dioxolo[4′,5′:4,5]benzo[1,2-d]imidazol-6-yl)nicotinamide]",< 200
8,"CC(C)(C)c1nc(-c2cccc(C(=O)Nc3nc4cc5c(cc4[nH]3)OC(F)(F)O5)c2)no1 [Compound 132, 3-(5-(tert-butyl)-1,2,4-oxadiazol-3-yl)-N-(2,2-difluoro-5H-[1,3]dioxolo[4′,5′:4,5]benzo[1,2-d]imidazol-6-yl)benzamide]",< 200
9,"O=C(Nc1nc2cc3c(cc2[nH]1)OC(F)(F)O3)c1ccnc(N2CCSCC2)c1 [Compound 14B, N-(2,2-difluoro-5H-[1,3]dioxolo[4′,5′:4,5]benzo[1,2-d]imidazol-6-yl)-2-thiomorpholinoisonicotinamide]",< 200
10,"O=C(Nc1nc2cc3c(cc2[nH]1)OC(F)(F)O3)c1csc(-c2cccc(F)c2)n1 [Compound 12B, N-(2,2-difluoro-5H-[1,3]dioxolo[4′,5′:4,5]benzo[1,2-d]imidazol-6-yl)-2-(3-fluorophenyl)thiazole-4-carboxamide]",< 200
11,"O=C(Nc1nc2cc3c(cc2[nH]1)OC(F)(F)O3)c1cccc([N+](=O)[O-])c1 [Compound 65, N-(2,2-difluoro-5H-[1,3]dioxolo[4′,5′:4,5]benzo[1,2-d]imidazol-6-yl)-3-nitrobenzamide]",< 200
12,"CC(=O)c1cccc(C(=O)Nc2nc3cc4c(cc3[nH]2)OC(F)(F)O4)c1 [Compound 114, 3-acetyl-N-(2,2-difluoro-5H-[1,3]dioxolo[4′,5′:4,5]benzo[1,2-d]imidazol-6-yl)benzamide]",< 200
13,"O=C(Nc1nc2cc3c(cc2[nH]1)OC(F)(F)O3)c1cccc(C(F)(F)F)c1 [Compound 66, N-(2,2-difluoro-5H-[1,3]dioxolo[4′,5′:4,5]benzo[1,2-d]imidazol-6-yl)-3-(trifluoromethyl)benzamide]",< 200
14,"O=C(Nc1nc2cc3c(cc2[nH]1)OC(F)(F)O3)c1ccccn1 [Compound 67, N-(2,2-difluoro-5H-[1,3]dioxolo[4′,5′:4,5]benzo[1,2-d]imidazol-6-yl)picolinamide]",> 1000
15,"O=C(Nc1nc2cc3c(cc2[nH]1)OC(F)(F)O3)c1csc(-c2ccc3c(c2)OCCO3)n1 [Compound 82, N-(2,2-difluoro-5H-[1,3]dioxolo[4′,5′:4,5]benzo[1,2-d]imidazol-6-yl)-2-(2,3-dihydrobenzo[b][1,4]dioxin-6-yl)thiazole-4-carboxamide]",< 200
16,"O=C(Nc1nc2cc3c(cc2[nH]1)OC(F)(F)O3)c1ccc([N+](=O)[O-])s1 [Compound 63, N-(2,2-difluoro-5H-[1,3]dioxolo[4′,5′:4,5]benzo[1,2-d]imidazol-6-yl)-5-nitrothiophene-2-carboxamide]",200 to 1000
17,"COc1cncc(C(=O)Nc2nc3cc4c(cc3[nH]2)OC(F)(F)O4)c1 [Compound 123, N-(2,2-difluoro-5H-[1,3]dioxolo[4′,5′:4,5]benzo[1,2-d]imidazol-6-yl)-5-methoxynicotinamide]",< 200
18,"Nc1ccc(C(=O)Nc2nc3cc4c(cc3[nH]2)OC(F)(F)O4)cc1C(F)(F)F [Compound 126, 4-amino-N-(2,2-difluoro-5H-[1,3]dioxolo[4′,5′:4,5]benzo[1,2-d]imidazol-6-yl)-3-(trifluoromethyl)benzamide]",< 200

row,Compound,IC50 [nM]
1,"O=C(Nc1nc2cc3c(cc2[nH]1)OC(F)(F)O3)c1c[nH]cn1 [Compound 103, N-(2,2-difluoro-5H-[1,3]dioxolo[4′,5′:4,5]benzo[1,2-d]imidazol-6-yl)-1H-imidazole-4-carboxamide]",200 to 1000
2,"O=C(Nc1nc2cc3c(cc2[nH]1)OC(F)(F)O3)c1sccc1Cl [Compound 64, 3-chloro-N-(2,2-difluoro-5H-[1,3]dioxolo[4′,5′:4,5]benzo[1,2-d]imidazol-6-yl)thiophene-2-carboxamide]",> 1000
3,"COc1cc(C(=O)Nc2nc3cc4c(cc3[nH]2)OC(F)(F)O4)ccn1 [Compound 124, N-(2,2-difluoro-5H-[1,3]dioxolo[4′,5′:4,5]benzo[1,2-d]imidazol-6-yl)-2-methoxyisonicotinamide]",< 200
4,"O=C(Nc1nc2cc3c(cc2[nH]1)OC(F)(F)O3)c1ccc(NCc2ccccc2)cc1 [Compound 76, 4-(benzylamino)-N-(2,2-difluoro-5H-[1,3]dioxolo[4′,5′:4,5]benzo[1,2-d]imidazol-6-yl)benzamide]",< 200
5,"CCN(CC)c1ccc(C(=O)Nc2nc3cc4c(cc3[nH]2)OC(F)(F)O4)cc1 [Compound 74, 4-(diethylamino)-N-(2,2-difluoro-5H-[1,3]dioxolo[4′,5′:4,5]benzo[1,2-d]imidazol-6-yl)benzamide]",200 to 1000
6,"O=C(Nc1nc2cc3c(cc2[nH]1)OC(F)(F)O3)c1cccc(N2CCCCC2)c1 [Compound 128, N-(2,2-difluoro-5H-[1,3]dioxolo[4′,5′:4,5]benzo[1,2-d]imidazol-6-yl)-3-(piperidin-1-yl)benzamide]",< 200
7,"O=C(Nc1nc2cc3c(cc2[nH]1)OC(F)(F)O3)c1ccc2ccccc2n1 [Compound 59, N-(2,2-difluoro-5H-[1,3]dioxolo[4′,5′:4,5]benzo[1,2-d]imidazol-6-yl)quinoline-2-carboxamide]",> 1000
8,O=C(Nc1nc2cc3c(cc2[nH]1)OC(F)(F)O3)c1csc(-c2cccc(OC(F)(F)F)c2)n1 [Compound 19B],200 to 1000
9,"Nc1ccc(C(=O)Nc2nc3cc4c(cc3[nH]2)OC(F)(F)O4)cn1 [Compound 110, 6-amino-N-(2,2-difluoro-5H-[1,3]dioxolo[4′,5′:4,5]benzo[1,2-d]imidazol-6-yl)nicotinamide]",200 to 1000
10,"O=C(Nc1nc(C(=O)Nc2nc3cc4c(cc3[nH]2)OC(F)(F)O4)ns1)c1ccsc1 [Compound 10B, N-(2,2-difluoro-5H-[1,3]dioxolo[4′,5′:4,5]benzo[1,2-d]imidazol-6-yl)-5-(thiophene-3-carboxamido)-1,2,4-thiadiazole-3-carboxamide]",< 200
11,"Cn1cc(C(=O)Nc2nc3cc4c(cc3[nH]2)OC(F)(F)O4)cn1 [Compound 13B, N-(2,2-difluoro-5H-[1,3]dioxolo[4′,5′:4,5]benzo[1,2-d]imidazol-6-yl)-1-methyl-1H-pyrazole-4-carboxamide]",< 200
12,"O=C(Nc1nc2cc3c(cc2[nH]1)OC(F)(F)O3)c1ccc(Cl)c(Cl)c1 [Compound 109, 3,4-dichloro-N-(2,2-difluoro-5H-[1,3]dioxolo[4′,5′:4,5]benzo[1,2-d]imidazol-6-yl)benzamide]",200 to 1000
13,"Cc1cc(C(=O)Nc2nc3cc4c(cc3[nH]2)OC(F)(F)O4)no1 [Compound 145, N-(2,2-difluoro-5H-[1,3]dioxolo[4′,5′:4,5]benzo[1,2-d]imidazol-6-yl)-5-methylisoxazole-3-carboxamide]",> 1000
14,"O=C(Nc1nc2cc3c(cc2[nH]1)OC(F)(F)O3)c1ccc(F)cc1 [Compound 119, N-(2,2-difluoro-5H-[1,3]dioxolo[4′,5′:4,5]benzo[1,2-d]imidazol-6-yl)-4-fluorobenzamide]",200 to 1000
15,"O=C(Nc1nc2cc3c(cc2[nH]1)OC(F)(F)O3)c1ccc(Cl)cc1 [Compound 106, 4-chloro-N-(2,2-difluoro-5H-[1,3]dioxolo[4′,5′:4,5]benzo[1,2-d]imidazol-6-yl)benzamide]",> 1000
16,"O=C(Nc1nc2cc3c(cc2[nH]1)OC(F)(F)O3)c1cc[nH]n1 [Compound 73, N-(2,2-difluoro-5H-[1,3]dioxolo[4′,5′:4,5]benzo[1,2-d]imidazol-6-yl)-1H-pyrazole-3-carboxamide]",> 1000
17,"N#Cc1ccc(C(=O)Nc2nc3cc4c(cc3[nH]2)OC(F)(F)O4)c(F)c1 [Compound 93, 4-cyano-N-(2,2-difluoro-5H-[1,3]dioxolo[4′,5′:4,5]benzo[1,2-d]imidazol-6-yl)-2-fluorobenzamide]",> 1000
18,"NS(=O)(=O)c1c[nH]c(C(=O)Nc2nc3cc4c(cc3[nH]2)OC(F)(F)O4)c1 [Compound 101, N-(2,2-difluoro-5H-[1,3]dioxolo[4′,5′:4,5]benzo[1,2-d]imidazol-6-yl)-4-sulfamoyl-1H-pyrrole-2-carboxamide]",< 200
